In US20260015387A1, “MITOCHONDRIAL ANTIOXIDANT PEPTIDES” (priority 2022, published 2026):
pEC50: −log10 of the molar value. Like-named read-outs stand apart in the source and are kept apart here. Square brackets hold non-standard residues; d marks the D form. Dmt = Cc1cc(O)cc(C)c1C[C@H](N)C(=O)O

How the values were obtained:
[1] = Hydroxyl radical scavenging measured by EPR; settings: DMPO trap, compared to the SS-31 peptide (FIG. 7)
Procedure: Hydroxyl radical scavenging activity of peptides measured by electron paramagnetic resonance (EPR). Hydroxyl radical was generated by a reaction of 0.8 mM FeSO4, with 0.8-mM H2O2, pH 7.0 (250 μL). The hydroxyl radicals were trapped with 5,5-dimethyl-1-pyrroline-N-oxide (DMPO) prior to obtaining spectra.

16HBE41o-cells = assay type: cell-based; settings: for Protection against HOCl-mediated cell death: cells treated with 200 μM HOCl, MTT assay
Procedure: 16HBE41o-cells were treated with 200 μM of HOCl for 60 min in PBS with or without increasing concentrations of peptides. Cells were washed and then placed back in media and cell viability was assess at 24 hours using the MTT assay. % Protection was determined by normalizing data to cell viability with and without oxidant.
An HOCl protection assay using 16HBE41o-cells was performed. This assay measured protection against cell death using HOCl as the oxidant. RH8=2TH peptide and RH9=His peptide. […] For this assay, 16HBE41o-cells were treated with 200 μM of HOCl for 60 minutes in PBS with or without increasing concentrations of test compounds. Cells were washed and then placed back in media and cell viability was assess at 24 hours using the MTT assay. % Protection was determined by normalizing data to cell viability with and without oxidant. Data curves were generated using Prism 8 software (GraphPad) for 50% effective concentration (EC50) determinations and their respective 95% confidence intervals.

[2] = DPPH antioxidant activity (radical quenching); settings: compared to the SS-31 peptide (FIG. 3)
Procedure: Experiments were performed to determine DPPH antioxidant activity. Radical concentration of DPPH was determined after reacting with varying concentrations of peptide. DPPH is an organic radical with a peak ABS at 525 nm.

[3] = system: Human HMESO malignant mesothelioma cells; assay: ROS glow assay (cellular H2O2 levels); assay type: cell-based; settings: 250 mM peptide, 50 μM menadione, 4 hours; compared to the SS-31 peptide (FIG. 8)
Procedure: An ROS glow assay was also performed. The assay measures the levels of H2O2 after injury to the cell. Human HMESO malignant mesothelioma cells were incubated with […] of WT, 2-TH or His compound with the addition 50 μM menadione and the H2O2 substrate for 4 hours (in duplicate). The reaction was quenched with addition of the H2O2 detection substrate. Luminescence levels were measured in a plate reader after 30 minutes of incubation.

[4] = In vitro antioxidant capacity studies; settings: in vitro data
From the text: Various in vitro antioxidant capacity studies and some cell-based protection assays have been performed. […] This is especially true for HOCl-mediated injury as illustrated in FIG. 9.

cardiolipin = assay: Cardiolipin binding assay (cytochrome c reduction by ascorbate); settings: compared to SS31 (FIG. 18)
From the text: Cardiolipin binds to cytochrome c, preventing it from being reduced by ascorbate. When the peptide binds cardiolipin, cytochrome c is free to be reduced by ascorbate.

[5] = system: cellular reactive oxygen species; settings: ROS caused by 1-butyl hydroperoxide; cited from earlier work
[6] = ABTS radical quenching assay; settings: FIGS. 4-6
Procedure: ABTS assays were also performed. ABTS is a radical cation that is blue in color and absorbs light at 734 nm. 7 mM AzBTS was mixed in water with 2.45 mM potassium persulfate and left 16 hrs in the dark at rt to oxidize. […] The ABTS solution was diluted to an absorbance of ˜0.7 at 734 nm. Samples were assayed with ABTS: 990 μL ABTS solution+10 μL sample. Stocks of peptides were made with concentrations in the range of 0.1 mM to 3.2 mM. This assay may be a better choice than DPPH if there is less steric hindrance. FIGS. 4-6 show the results of these experiments.

[7] = after global ischemia; cited from earlier work

Row | Compound | Scavenging of the hydroxyl radical [1] | pEC50 (16HBE41o-cells; cells treated with 200 μM HOCl for 60 min in PBS, viability at 24 hours, MTT, read-out: EC50 of protection against HOCl-mediated cell death) | Protection against HOCl-mediated cell death (16HBE41o-cells) | Scavenging of the DPPH radical [2] | Cellular levels of H2O2 [3] | Antioxidant activity (overall comparison) [4] | Binding to cardiolipin (CL) (cardiolipin) | Protection against HOCl-mediated cell death (16HBE41o-cells; listed as WT peptide) | Scavenging of cellular reactive oxygen species [5] | Quenching of the ABTS radical [6] | Prevention of reperfusion-associated myocardial stunning [7]
1 | N=C(N)NCCC[C@@H](N)C(=O)N[C@@H](Cc1c[nH]c(=S)[nH]1)C(=O)N[C@@H](CCCCN)C(=O)N[C@@H](Cc1ccccc1)C(N)=O [RH8] | better at scavenging | 4.30 | protects strongly | better at scavenging the DPPH radical | significantly lower compared to the SS-31 peptide | significantly better antioxidant than the SS-31 peptide | binds to CL equally well as SS31 |  |  |  | 
2 | H-[dR][Dmt]KF-NH2 [SS-31] |  |  | did not protect against HOCl-mediated injury at all |  |  |  |  | did not show any protection | scavenged cellular reactive oxygen species | quenches the ABTS radical better | prevented reperfusion-associated myocardial stunning
